Residues, ends and D or L forms follow the SMILES beside them. *: point of attachment. Cbz = O=C(OCc1ccccc1)*; CH2F = FC*
How the values were obtained:
B16F10 cells = assay: TNFα-mediated apoptosis in B16F10 cells (Annexin V/PI, caspase 3/7, PARP); type: cell-based, mouse; conditions: 72 h
Protocol: Fig. 3 LD4172 sensitizes B16F10 cells to TNFα-mediated apoptosis. B16F10 cells were treated with or without TNFα (100 ng/mL), Z-VAD-FMK (25 μM), LD4172 (1 μM), and/or T2I (1 μM) for 72 h. A NF-κB activity in B16F10 cells expressing a NanoLuc reporter for NF-κB response. Data represent the mean NF-κB activity ± SD (n = 3 biologically independent samples from two independent experiments). Statistical significance was determined using a two-tailed unpaired t-test, with P values indicated. B Representative flow cytometry dot plots showing apoptosis in B16F10 cells from three independent experiments (n = 3 biologically independent samples per experiment). […] Cell death was quantified by PI uptake using the Cytation 5 imager. D Top: Percentage of PI+ B16F10 cells after 72 h of the indicated treatments, calculated as PI+ (%) = (Number of PI+ cells/Total cells) × 100%, using the Cytation 5 imager. […] Statistical significance was determined using a two-tailed unpaired t-test, with P values indicated. […] E Top: Quantification of extracellular ATP levels secreted by B16F10 cells. Data represent mean extracellular ATP levels ± SD (n = 4 biologically independent samples from one experiment), with statistical significance determined by a two-tailed unpaired t-test, and P values indicated. […]

NF-κB = NF-κB reporter assay in B16F10 cells; type: cell-based, mouse; conditions: TNFα 100 ng/mL, compound 1 μM
Protocol: One million B16F10 cells were seeded in T25 flask. The next day, cells were transfected with the NanoLuc Reporter Vector with NF-κB Response Element (pNL3.2.NF-kB-RE; Promega; Cat. No. N1111) using Lipofectamine 3000 transfection reagent (Invitrogen) at a ratio of 1:3, DNA:Lipofectamine. After 24 h, cells were collected and seeded at 2000 cells per well in triplicate in an opaque 96 well plate. 24 h later the media was discarded and replaced with fresh DMEM media and treated with indicated cytokine cocktail for 24 h. Reporter expression was read out using the Nano-Glo Luciferase Assay System (Promega) according to the manufacturer’s instruction.

B16F10 tumors = assay: B16F10 syngeneic tumor model; type: in vivo, C57BL/6J mice; conditions: compound 20 mg/kg i.p. daily plus anti-PD1 100 µg every 3 days
Protocol: To establish a syngeneic mouse model, 3 × 10^5 B16F10 cells resuspended in PBS were mixed 1:1 with Matrigel (354262, Corning) and subcutaneously injected into the right flank of 7-week-old wild-type female C57BL/6J mice on day 0. Tumor sizes were measured on day 6, and mice were grouped such that the average tumor volume was ~100 mm³. Treatments began on day 7. Antibodies, including anti-PD1 (100 μg, BE0146, BioXcell) and anti-CD8 (500 μg, BE0004, BioXcell), were administered intraperitoneally every 3 days in 100 μL volumes. The RIPK1 degrader LD4172 and RIPK1 kinase inhibitor T2I were delivered in 200 μL of vehicle solution (30% PEG400, 5% Tween-80, 5% DMSO) daily via intraperitoneal injection (20 mg/kg). T-cell depletion or blocking was confirmed by flow cytometry in tumor-bearing mice. Tumors were measured every 3 days starting from day 7 post-injection until euthanasia. Mice were euthanized via CO2 inhalation when the tumor size reached 1.5 cm in the longest dimension or if severe necrosis was observed. Tumor volume was calculated using the formula: (L × W ²)/2, where L represents the length and W the width. To comply with ethical guidelines and ensure data quality, animals were humanely euthanized either when tumors reached the maximum permitted size or immediately before flow cytometry analysis, which required fresh tumor tissues. […]

RIPK1 [1] = molecular target: T1, RIPK1 (Homo sapiens, UniProt Q13546); assay: RIPK1 degradation by Western blot in Jurkat cells; type: cell-based; conditions: 4 h pretreatment followed by LD4172
T1 construct: whole-cell lysates were prepared using a lysis buffer; endogenous in cells; host or cells: Jurkat
T1 sequence (Q13546 1-671): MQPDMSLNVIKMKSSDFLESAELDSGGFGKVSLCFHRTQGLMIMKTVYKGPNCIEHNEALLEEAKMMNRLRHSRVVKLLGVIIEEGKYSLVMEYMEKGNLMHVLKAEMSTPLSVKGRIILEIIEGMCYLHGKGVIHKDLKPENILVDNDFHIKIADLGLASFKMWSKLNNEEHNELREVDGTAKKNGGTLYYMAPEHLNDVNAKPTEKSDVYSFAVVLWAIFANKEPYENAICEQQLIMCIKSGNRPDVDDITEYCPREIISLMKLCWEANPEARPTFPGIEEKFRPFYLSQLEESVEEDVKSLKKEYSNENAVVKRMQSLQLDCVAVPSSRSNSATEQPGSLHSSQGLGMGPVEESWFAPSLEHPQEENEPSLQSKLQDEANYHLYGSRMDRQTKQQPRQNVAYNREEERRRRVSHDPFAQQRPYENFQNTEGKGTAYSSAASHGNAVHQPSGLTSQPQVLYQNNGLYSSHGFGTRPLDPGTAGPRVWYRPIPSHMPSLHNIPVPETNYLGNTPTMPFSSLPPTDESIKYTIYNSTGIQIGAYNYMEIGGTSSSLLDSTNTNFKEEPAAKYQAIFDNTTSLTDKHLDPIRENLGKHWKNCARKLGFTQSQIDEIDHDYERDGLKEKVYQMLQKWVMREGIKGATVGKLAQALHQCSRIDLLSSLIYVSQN
Protocol: (§1) Cells were seeded into six-well plates at a density of 5 × 10^5 cells/mL in 2 mL of complete culture medium. Following an overnight adaptation period, cells were treated with serially diluted LD4172 compounds for 24 h. After treatment, whole-cell lysates were prepared using a lysis buffer (1×RIPA supplemented with protease and phosphatase inhibitor cocktail). Protein concentrations in the lysates were measured using the BCA protein assay. Subsequently, equal amounts of protein (20 µg) from each sample were loaded onto a sodium dodecyl sulfate-polyacrylamide gel and separated by electrophoresis (Bio-Rad) at 120 V for 1.5 h. The separated proteins were then transferred to a polyvinylidene fluoride (PVDF) membrane using a Transblot Turbo system (Bio-Rad).
(§2) After blocking for 1 h at room temperature in 1% BSA-TBST, the membranes were incubated overnight at 4 °C with specific primary antibodies (diluted at 1:1000 in TBST) targeting the proteins of interest, including anti-RIPK1 (3493, Cell Signaling Technology (CST)), anti-cleaved caspase 3 (9661, CST), anti-cleaved caspase7 (8438, CST), anti-cleaved PARP (5625, CST), anti-HMGB1 (3935, CST), anti-calreticulin (12238, CST), and anti-β-actin (4970, CST). […] All western blots were processed and quantified using ImageJ software, and protein levels were normalized to β-actin loading controls.

RIPK1 [2] = molecular target: T2, RIPK1 (Mus musculus, UniProt Q60855); assay: RIPK1 degradation by Western blot in B16F10 cells; type: cell-based; conditions: 4 h pretreatment followed by LD4172
T2 construct: endogenous in cells; host or cells: B16F10
T2 sequence (Q60855 1-656): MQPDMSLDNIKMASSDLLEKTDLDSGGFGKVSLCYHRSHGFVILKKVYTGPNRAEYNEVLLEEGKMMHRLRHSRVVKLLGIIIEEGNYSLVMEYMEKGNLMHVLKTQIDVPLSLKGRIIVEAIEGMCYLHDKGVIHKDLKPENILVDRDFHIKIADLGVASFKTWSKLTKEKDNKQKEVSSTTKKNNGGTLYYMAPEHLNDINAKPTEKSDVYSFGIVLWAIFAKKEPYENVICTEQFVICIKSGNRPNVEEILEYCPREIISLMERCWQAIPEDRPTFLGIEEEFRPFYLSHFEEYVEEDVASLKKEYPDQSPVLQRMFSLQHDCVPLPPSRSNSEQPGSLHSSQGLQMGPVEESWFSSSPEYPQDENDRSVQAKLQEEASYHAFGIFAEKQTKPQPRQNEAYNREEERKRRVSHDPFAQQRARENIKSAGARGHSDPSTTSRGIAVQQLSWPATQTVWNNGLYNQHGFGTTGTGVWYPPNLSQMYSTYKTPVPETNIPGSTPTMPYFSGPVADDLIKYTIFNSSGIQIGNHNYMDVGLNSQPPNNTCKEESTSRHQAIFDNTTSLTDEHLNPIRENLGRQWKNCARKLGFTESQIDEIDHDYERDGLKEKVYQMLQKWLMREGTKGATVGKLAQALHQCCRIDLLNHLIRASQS
Protocol: as §1, §2

| SMILES | LD4172-induced RIPK1 degradation after pretreatment (RIPK1 [1]) | LD4172-induced RIPK1 degradation after pretreatment (RIPK1 [2]) | also measured |
| --- | --- | --- | --- |
| COC(=O)C[C@H](NC(=O)[C@H](C)NC(=O)[C@@H](NC(=O)OCc1ccccc1)C(C)C)C(=O)CF [Z-VAD-FMK] (Cbz-Val-Ala-Asp(OMe)-CH2F) |  |  | reversal of apoptosis induced by TNFα and LD4172 (B16F10 cells; Z-VAD-FMK 25 μM): reversed |
| CCn1cc(-c2ccc3c(c2)CCN3C(=O)Cc2cccc(OC(F)(F)F)c2)c2c(N)ncnc21 [T2I] |  |  | TNF-α-induced NF-κB activity (NF-κB): not; tumor response in combination with anti-PD1 (B16F10 tumors): failed to sensitize B16F10 tumors to anti-PD1 treatment; TNFα-mediated apoptosis (B16F10 cells; TNFα 100 ng/mL, compound 1 μM): did not trigger TNFα-mediated apoptosis |
| NS(=O)(=O)OC[C@@H]1C[C@@H](n2ccc3c(N[C@H]4CCc5ccccc54)ncnc32)C[C@@H]1O [MLN4924] | reversed | reversed |  |
| CC(C)C[C@H](NC(=O)[C@H](CCc1ccccc1)NC(=O)CN1CCOCC1)C(=O)N[C@@H](Cc1ccccc1)C(=O)N[C@@H](CC(C)C)C(=O)[C@@]1(C)CO1 [carfilzomib] | reversed | reversed |  |
